Data published in the supplement of paper PMC10307832.

Assays:
Experiment in all cases: relative viability (nuclei count vs DMSO), 5 days (fraction); higher = more cells survive
Kobe2602 = compound: C1=CC(=CC=C1NC(=S)NNC2=C(C=C(C=C2[N+](=O)[O-])C(F)(F)F)[N+](=O)[O-])F [Kobe2602]
Method in brief: (§1)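 Viability was read as treated-well nuclei divided by vehicle-well nuclei, using the median across plates. Lung cancer cell lines in 1536-well plates were kept overnight at 37 °C, pinned with five √10-spaced library-drug doses, and after 5 days were Hoechst-stained, imaged at 4× and counted in MetaXpress. Plates passed only with control CV below 25% and at least one doubling.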

Cabozantinib = compound: COc1cc2nccc(Oc3ccc(NC(=O)C4(C(=O)Nc5ccc(F)cc5)CC4)cc3)c2cc1OC [Cabozantinib]
Method in brief: as §1

Zosuquidar = compound: O[C@@H](COc1cccc2ncccc12)CN1CCN([C@@H]2c3ccccc3[C@@H]3[C@H](c4ccccc42)C3(F)F)CC1 [Zosuquidar]
Method in brief: as §1

Cabozantinib + Lapatinib = compound: COc1cc2nccc(Oc3ccc(NC(=O)C4(C(=O)Nc5ccc(F)cc5)CC4)cc3)c2cc1OC [Cabozantinib] + CS(=O)(=O)CCNCc1ccc(-c2ccc3ncnc(Nc4ccc(OCc5cccc(F)c5)c(Cl)c4)c3c2)o1 [Lapatinib] (partner 2 µM)
Method in brief: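 Relative viability divides the nuclei count in treated wells by that in vehicle wells. Lung cancer cell lines were seeded in 1536-well plates, dosed by pin tool the next day, and fixed and stained after 5 days in one step with final 0.05% Triton X-100, 1% formaldehyde and 1 ug/ml Hoechst. Dosing was a single drug or a fixed anchor-drug dose plus five library-drug doses (not always all listed) in √10 steps, and values are medians of duplicate plates imaged at 4×.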

Work on UMC-11 yielded a relative viability (Kobe2602; 0.2 µM) of 1.05, a relative viability (Kobe2602; 0.6325 µM) of 1.01 and a relative viability (Kobe2602; 2 µM) of 1.06. For the same cell line, the relative viability (Kobe2602; 6.325 µM) was 0.975, the relative viability (Kobe2602; 20 µM) was 1.05 and the relative viability (Cabozantinib; 0.02 µM) was 0.989. The relative viability (Cabozantinib; 0.06325 µM) was 1.11, the relative viability (Cabozantinib; 0.2 µM) was 0.963 and the relative viability (Cabozantinib; 0.6325 µM) was 1.04. The relative viability (Cabozantinib; 2 µM) was 1, the relative viability (Zosuquidar; 0.01 µM) was 0.957 and the relative viability (Zosuquidar; 0.03162 µM) was 1.04. It also gave a relative viability (Zosuquidar; 0.1 µM) of 0.908, a relative viability (Zosuquidar; 0.3162 µM) of 1.11 and a relative viability (Zosuquidar; 1 µM) of 0.96. It also gave a relative viability (Cabozantinib + Lapatinib; first compound 0.02 µM) of 1.05, a relative viability (Cabozantinib + Lapatinib; first compound 0.06325 µM) of 1.41 and a relative viability (Cabozantinib + Lapatinib; first compound 0.2 µM) of 0.86. The relative viability (Cabozantinib + Lapatinib; first compound 0.6325 µM) was 1.07 and the relative viability (Cabozantinib + Lapatinib; first compound 2 µM) was 0.91.
